Test results published in article PMC5119973 (Cancer Medicine, 2016).

How the values were obtained:
[1] = target: T1, FLT1 (Homo sapiens, UniProt P17948); experiment: KINOMEscan active-site competitive binding assay; details: slash = two separate measurements
T1 construct: purchased DiscoveRx (KINOMEscan service)

[2] = target: T2, FLT3^D835H (Homo sapiens, UniProt P36888, D835H); experiment: KINOMEscan active-site competitive binding assay
T2 construct: purchased DiscoveRx

[3] = target: VEGFR2 (Homo sapiens, UniProt P35968); experiment: VEGFR2 kinase phosphorylation assay in NIH‐3T3 cells; type: cell-based; details: 0.1 mg/mL human serum albumin, data not shown
VEGFR2, sequence (P35968 20-1356): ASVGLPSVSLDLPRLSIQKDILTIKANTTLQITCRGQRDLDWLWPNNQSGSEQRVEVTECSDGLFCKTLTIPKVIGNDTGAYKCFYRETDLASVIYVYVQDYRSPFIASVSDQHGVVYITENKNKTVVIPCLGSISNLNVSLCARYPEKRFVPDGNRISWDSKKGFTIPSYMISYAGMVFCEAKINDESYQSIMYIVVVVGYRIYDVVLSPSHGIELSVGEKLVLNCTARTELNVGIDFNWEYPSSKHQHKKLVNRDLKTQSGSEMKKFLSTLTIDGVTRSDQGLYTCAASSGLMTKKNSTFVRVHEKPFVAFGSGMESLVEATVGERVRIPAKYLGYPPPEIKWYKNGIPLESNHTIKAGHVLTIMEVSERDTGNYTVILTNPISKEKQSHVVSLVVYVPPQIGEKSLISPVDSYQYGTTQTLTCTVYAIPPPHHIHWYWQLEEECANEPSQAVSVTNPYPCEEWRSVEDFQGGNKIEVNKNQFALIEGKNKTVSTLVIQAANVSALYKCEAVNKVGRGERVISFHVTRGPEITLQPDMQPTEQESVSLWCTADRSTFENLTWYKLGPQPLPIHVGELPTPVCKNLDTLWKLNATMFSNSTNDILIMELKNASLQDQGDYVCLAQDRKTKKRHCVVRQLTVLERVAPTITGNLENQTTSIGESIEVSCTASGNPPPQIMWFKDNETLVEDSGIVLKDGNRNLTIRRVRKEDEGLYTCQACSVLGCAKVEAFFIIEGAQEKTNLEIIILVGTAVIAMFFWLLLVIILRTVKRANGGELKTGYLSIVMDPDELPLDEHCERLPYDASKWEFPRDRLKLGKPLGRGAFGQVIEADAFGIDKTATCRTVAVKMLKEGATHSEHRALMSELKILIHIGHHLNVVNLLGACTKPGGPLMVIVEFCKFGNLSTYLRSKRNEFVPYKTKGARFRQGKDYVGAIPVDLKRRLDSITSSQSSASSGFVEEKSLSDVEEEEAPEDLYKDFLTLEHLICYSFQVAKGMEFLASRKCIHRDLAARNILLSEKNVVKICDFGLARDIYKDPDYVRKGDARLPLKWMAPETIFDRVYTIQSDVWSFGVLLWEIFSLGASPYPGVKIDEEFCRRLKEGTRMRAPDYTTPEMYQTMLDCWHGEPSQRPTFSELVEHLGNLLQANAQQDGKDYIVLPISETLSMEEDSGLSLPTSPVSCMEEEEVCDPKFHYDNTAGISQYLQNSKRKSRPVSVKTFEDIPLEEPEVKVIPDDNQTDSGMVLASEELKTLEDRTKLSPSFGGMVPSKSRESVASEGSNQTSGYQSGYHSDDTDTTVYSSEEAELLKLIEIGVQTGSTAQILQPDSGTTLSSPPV
Experimental: TIE‐2, wt KIT, and BRAF^V600E assays were performed by ProQinase (Freiburg, Germany). Cell lines used were Chinese hamster ovary (TIE‐2 assay), human acute megakaryoblastic leukemia cell line (M07e; wt KIT assay), and rat fibroblasts (RAT‐1; BRAF^V600E assay). VEGFR2 assays were performed in murine fibroblasts (NIH‐3T3) in the presence of 0.1 mg/mL human serum albumin. KIT^K642E assays were performed in a GIST cell line (GIST882) in the presence of 0.1 mg/mL BSA. Substrate phosphorylation was determined from total cell lysates by enzyme‐linked immunosorbent assay. In addition, an FGFR phosphorylation assay was performed using a human gastric carcinoma cell line (SNU‐16), with pFGFR assessed by western blot. The PDGFRA phosphorylation assay was performed by DiscoverRx using the DiscoverRx PathHunter cell line, modified to express PDGFRA. […] The assay signal was generated using a detection reagent cocktail and measured by chemoluminescence 13. Both the PDGFRA and FGFR assays were performed in the presence of 0.1 mg/mL BSA.

[4] = target: RAFs; experiment: KINOMEscan active-site competitive binding assay; details: range among family members
[5] = target: T3, KIT^K642E (Homo sapiens, UniProt P10721, K642E); experiment: Cellular kinase phosphorylation assay, GIST882/KIT^K642E; type: cell-based; details: GIST882/KIT^K642E cells; 0.1% bovine serum albumin; brackets = number of experiments; read-out: Mean ± SD IC50
T3 construct: KIT^K642E assays were performed in a GIST cell line (GIST882); endogenous in cells; host or cells: GIST882
T3 sequence (P10721 26-976 K642E): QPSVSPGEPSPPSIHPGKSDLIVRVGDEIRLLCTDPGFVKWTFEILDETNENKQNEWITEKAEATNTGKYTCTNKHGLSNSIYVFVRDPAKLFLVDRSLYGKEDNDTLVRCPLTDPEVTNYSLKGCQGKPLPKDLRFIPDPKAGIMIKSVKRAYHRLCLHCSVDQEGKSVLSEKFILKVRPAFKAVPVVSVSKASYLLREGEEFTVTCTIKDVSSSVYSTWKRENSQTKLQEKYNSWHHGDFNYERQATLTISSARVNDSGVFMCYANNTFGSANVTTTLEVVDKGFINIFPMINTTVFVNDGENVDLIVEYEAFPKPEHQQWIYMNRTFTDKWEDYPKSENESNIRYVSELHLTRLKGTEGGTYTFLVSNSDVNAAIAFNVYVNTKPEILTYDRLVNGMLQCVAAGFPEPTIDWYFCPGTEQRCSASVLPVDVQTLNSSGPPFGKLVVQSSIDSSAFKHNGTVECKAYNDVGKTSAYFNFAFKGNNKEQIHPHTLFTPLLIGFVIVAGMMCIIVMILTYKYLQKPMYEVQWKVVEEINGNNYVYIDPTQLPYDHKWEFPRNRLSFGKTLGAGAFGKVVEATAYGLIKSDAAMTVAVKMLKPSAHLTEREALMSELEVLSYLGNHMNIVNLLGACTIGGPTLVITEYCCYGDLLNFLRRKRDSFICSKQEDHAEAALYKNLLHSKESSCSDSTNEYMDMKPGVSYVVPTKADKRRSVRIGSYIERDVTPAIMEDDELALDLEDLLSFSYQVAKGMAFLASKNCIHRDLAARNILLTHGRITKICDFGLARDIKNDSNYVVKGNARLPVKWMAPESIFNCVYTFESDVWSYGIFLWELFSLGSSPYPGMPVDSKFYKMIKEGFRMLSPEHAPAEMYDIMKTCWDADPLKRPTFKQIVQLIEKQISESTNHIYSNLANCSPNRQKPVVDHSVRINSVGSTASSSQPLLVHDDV

[6] = target: T4, PDGFRA (Homo sapiens, UniProt P16234); experiment: KINOMEscan active-site competitive binding assay; details: slash = two separate measurements
T4 construct: purchased DiscoveRx
T4 sequence (P16234 24-1089): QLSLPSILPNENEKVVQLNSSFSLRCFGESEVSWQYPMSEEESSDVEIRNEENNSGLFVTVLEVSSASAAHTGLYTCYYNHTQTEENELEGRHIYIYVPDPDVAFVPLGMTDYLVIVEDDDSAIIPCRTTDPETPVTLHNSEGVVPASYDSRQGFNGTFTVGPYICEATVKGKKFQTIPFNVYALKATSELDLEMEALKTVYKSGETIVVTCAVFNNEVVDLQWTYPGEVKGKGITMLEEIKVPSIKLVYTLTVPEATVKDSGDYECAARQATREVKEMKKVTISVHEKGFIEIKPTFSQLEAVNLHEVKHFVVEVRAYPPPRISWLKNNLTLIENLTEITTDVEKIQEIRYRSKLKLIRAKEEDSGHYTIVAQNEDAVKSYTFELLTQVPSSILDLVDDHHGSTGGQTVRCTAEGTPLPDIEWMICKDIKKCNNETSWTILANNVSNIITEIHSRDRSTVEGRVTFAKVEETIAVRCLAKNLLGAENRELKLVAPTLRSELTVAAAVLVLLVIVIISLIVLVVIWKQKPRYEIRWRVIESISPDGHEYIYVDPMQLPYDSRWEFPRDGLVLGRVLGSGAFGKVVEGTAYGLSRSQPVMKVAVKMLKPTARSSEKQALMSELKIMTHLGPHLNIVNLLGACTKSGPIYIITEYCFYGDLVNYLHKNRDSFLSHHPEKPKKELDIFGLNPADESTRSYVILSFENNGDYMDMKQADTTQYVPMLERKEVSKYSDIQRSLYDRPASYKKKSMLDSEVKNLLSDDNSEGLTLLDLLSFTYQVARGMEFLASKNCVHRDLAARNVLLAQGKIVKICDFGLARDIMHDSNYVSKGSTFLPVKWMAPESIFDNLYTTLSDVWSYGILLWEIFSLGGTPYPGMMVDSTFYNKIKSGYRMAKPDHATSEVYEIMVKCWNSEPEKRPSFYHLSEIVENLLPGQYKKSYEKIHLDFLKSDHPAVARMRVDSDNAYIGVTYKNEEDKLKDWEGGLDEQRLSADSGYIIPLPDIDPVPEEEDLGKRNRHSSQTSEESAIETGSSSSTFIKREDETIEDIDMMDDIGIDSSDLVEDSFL

[7] = target: T5, FLT3 (Homo sapiens, UniProt P36888); experiment: KINOMEscan active-site competitive binding assay; details: slash = two separate measurements
T5 construct: purchased DiscoveRx (KINOMEscan service)

[8] = target: T6, FLT3^K663Q (Homo sapiens, UniProt P36888, K663Q); experiment: KINOMEscan active-site competitive binding assay
T6 construct: purchased DiscoveRx

[9] = system: HuLECs; details: 100 nmol/L, 40 h, regorafenib data taken from ref 14; cited from earlier work
[10] = system: recombinant murine VEGFR2; details: cited from earlier work
[11] = system: BaF/3 cells expressing an imatinib‐resistant mutant KIT (557‐558del; T670I); experiment: In vitro proliferation, BaF/3 cells expressing imatinib‐resistant mutant KIT; type: cell-based; details: unpubl. data

T1 sequence (P17948 27-1338): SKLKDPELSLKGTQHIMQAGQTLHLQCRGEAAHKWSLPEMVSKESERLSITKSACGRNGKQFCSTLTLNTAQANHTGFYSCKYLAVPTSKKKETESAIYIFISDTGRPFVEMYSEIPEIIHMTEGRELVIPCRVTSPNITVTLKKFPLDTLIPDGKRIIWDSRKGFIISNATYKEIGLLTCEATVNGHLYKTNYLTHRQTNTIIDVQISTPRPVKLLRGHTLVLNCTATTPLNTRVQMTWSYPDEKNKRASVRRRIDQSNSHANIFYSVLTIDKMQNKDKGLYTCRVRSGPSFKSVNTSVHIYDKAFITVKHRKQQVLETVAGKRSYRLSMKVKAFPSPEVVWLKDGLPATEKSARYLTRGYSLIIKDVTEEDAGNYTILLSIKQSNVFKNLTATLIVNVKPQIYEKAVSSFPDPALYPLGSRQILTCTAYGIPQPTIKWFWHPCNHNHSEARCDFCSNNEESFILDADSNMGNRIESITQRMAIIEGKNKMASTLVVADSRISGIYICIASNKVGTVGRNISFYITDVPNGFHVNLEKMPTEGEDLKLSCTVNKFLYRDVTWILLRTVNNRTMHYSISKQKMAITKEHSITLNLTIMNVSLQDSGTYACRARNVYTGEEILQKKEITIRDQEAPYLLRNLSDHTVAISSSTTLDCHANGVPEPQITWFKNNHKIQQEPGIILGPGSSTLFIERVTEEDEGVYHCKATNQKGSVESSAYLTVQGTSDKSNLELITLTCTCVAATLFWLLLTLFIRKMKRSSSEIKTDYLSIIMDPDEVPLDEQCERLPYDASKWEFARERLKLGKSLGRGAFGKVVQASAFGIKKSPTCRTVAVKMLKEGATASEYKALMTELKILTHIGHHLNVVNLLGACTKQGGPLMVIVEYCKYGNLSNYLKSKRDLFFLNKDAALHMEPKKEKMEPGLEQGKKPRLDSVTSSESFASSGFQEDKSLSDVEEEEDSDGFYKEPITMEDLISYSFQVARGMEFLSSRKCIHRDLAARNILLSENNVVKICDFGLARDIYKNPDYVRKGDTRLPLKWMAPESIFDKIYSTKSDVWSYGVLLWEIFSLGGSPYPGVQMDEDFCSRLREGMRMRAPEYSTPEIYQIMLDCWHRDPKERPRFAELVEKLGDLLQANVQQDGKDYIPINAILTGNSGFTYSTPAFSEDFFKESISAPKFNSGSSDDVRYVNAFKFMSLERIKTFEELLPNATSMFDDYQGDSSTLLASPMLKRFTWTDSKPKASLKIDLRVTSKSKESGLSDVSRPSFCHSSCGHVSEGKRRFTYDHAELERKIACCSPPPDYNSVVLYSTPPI

Row | SMILES | Kd [1] | Kd [2] | Inhibition of VEGFR2 activity, potency relative to regorafenib [3] | Kd [4] | IC50 [5] | Kd [6] | Kd [7] | Kd [8] | Inhibition of VEGF‐C‐induced migration [9] | IC50 [10] | Inhibition of proliferation [11]
1 | CNC(=O)c1cc(Oc2ccc(NC(=O)Nc3ccc(Cl)c(C(F)(F)F)c3)c(F)c2)cc[n+]1[O-] [M‐2] | 23 nM | 120 nM | higher potency than regorafenib | 24 to 130 nM | 4 ± 2 nM | 7.3 nM |  |  |  |  | 
2 | NC(=O)c1cc(Oc2ccc(NC(=O)Nc3ccc(Cl)c(C(F)(F)F)c3)c(F)c2)cc[n+]1[O-] [M‐5] | 17 nM |  | higher potency than regorafenib |  |  |  | 2.6 nM | 5.5 nM |  |  | 
3 | CNC(=O)c1cc(Oc2ccc(NC(=O)Nc3ccc(Cl)c(C(F)(F)F)c3)c(F)c2)ccn1 [Regorafenib, reference compound] |  |  |  |  |  |  |  |  | inhibited | ~4 nM | potent inhibition
